Laboratory results reported in paper PMC10993450, “New benzimidazole derivative compounds with in vitro fasciolicidal properties” (Parasites & Vectors, 2024).
Values joined by “and” are separate entries in the source; they are usually repeats but may differ in a detail not shown here. Identical values can stand only once. “Also recorded” adds a separate entry of the source. Like-named read-outs stand apart in the source and are kept apart here.

Columns and labels:
Format in all cases: cell-based
[1] = tested on: Fasciola hepatica adults (ABZ-resistant isolate); experiment: Adult viability test (AVT), motility inhibition; conditions: for inhibition at 10 µM: Fasciola hepatica
Experimental: The adult viability test was based on a previous study carried out by Kirchhofer et al. with minor modifications. In brief, adult F. hepatica flukes were recovered from bile ducts of infected sheep with the resistant isolate. Flukes were quickly washed with 0.9% (w/v) NaCl and placed in six-well plates (Costar, Spain) with RPMI 1640 culture medium (Sigma-Aldrich®, Spain) supplemented with antibiotics (50 μg/mL streptomycin and 50 IU/mL penicillin; Sigma-Aldrich®, Spain) and 80 μg/mL of a hemin solution at 37 °C.
To monitor the anthelmintic effect of BZDs and the commercial drug ABZ, two flukes per well were incubated up to 72 h at a final concentration of 10 µM. DMSO at 0.5% was used as negative control. The individual movement of each fluke was examined using an inverted microscope at 24, 48, and 72 h. The activity of the compounds was estimated as motility inhibition, using a scale of fluke viability ranging from 3 (normal movements) to 0 (death, no movement observed for 2 min). All tests were repeated at least twice at different days.
Additionally, the percentage of motility inhibition for each compound was calculated from […] to 48 and 72 h after treatment using the following formula: 100 × (mean of the motility score of BZD at 24 h − mean of the motility score of BZD at 48 or 72 h)/(mean of the motility score of BZD at 24 h).
For the AVT, statistical analysis was performed using GraphPad Prism version 8.0.2. The normality of the motility inhibition scores was assessed using the Shapiro–Wilk test. Then, differences among scores at the three time points (24, 48, and 72 h) were evaluated using the Friedman test. In cases where significant differences were observed, post hoc analysis was conducted using the Nemenyi test for multiple comparisons. Comparisons with a P value < 0.05 were considered statistically significant.

[2] = tested on: Fasciola hepatica eggs (ABZ-susceptible isolate); experiment: Egg hatch test (EHT), ABZ-susceptible isolates; conditions: mean ± SEM; for killing at 5 µM: Fasciola hepatica, read-out: % Ovicidal activity susceptible isolate; for % Ovicidal activity: ABZ-susceptible isolate
Experimental: Eggs were recovered from gallbladders of cattle naturally infected with F. hepatica at the municipal slaughterhouse of León (Spain). For this, the bile of the gallbladders was filtered through sieves of different diameter size pores (500, 150, and 20 µm) using pressurized tap water. Eggs retained on the 20 µm pore size sieve were collected and stored at 4 °C in darkness until required within a maximum period of 2 months.
The susceptibility of the isolates to ABZ was confirmed by the egg hatch test (EHT) using an ABZ discriminant dose (DD) of 0.5 µM [23]. The technique is described in more detail below.
The in vitro anthelmintic activity of a total of 70 BZDs was initially tested on F. hepatica eggs recovered from gallbladders of cattle naturally infected with ABZ-susceptible isolates. The first screening was performed using a fixed concentration of 50 µM. […] Therefore, only BZDs with ovicidal activities over 80% progressed to the next assays at 10 µM. […] At this last concentration, the ovicidal effect of ABZ, ABZSO, and OXF was also evaluated.
(§1) The in vitro EHT described in the current study was based on previous studies. Briefly, 100–120 eggs were incubated in 990 µL of water and 10 μL of each working solution at 25 °C in the dark for a period of 12 h. After incubation, eggs were gently washed with tap water three times to facilitate compound removal and kept in darkness at 25 °C for 14 days. After this period, eggs were exposed to light for 2 h to stimulate the hatching of eggs. Then, hatched and unhatched eggs were evaluated and counted using an optical microscope. The term “hatched eggs” includes both hatched and embryonated eggs. Negative control eggs were incubated with 10 μL of DMSO in 990 μL of water, reaching a maximum DMSO concentration of 1% (v/v), while ABZ at 0.5 µM was used as positive control. Each compound at a specific concentration was tested in triplicate in the same EHT and repeated at least two different days.
With the aim to characterize the susceptibility of isolates from naturally infected cattle, the drug used in the EHT was ABZ, tested at a discriminant dose of 0.5 μM. Drug susceptibility is assumed when the ovicidal activity is over 70%, resistance when is lower than 40%, and a suspicion of resistance when activity is between these values at 0.5 μM.
(§2) The efficacy of each compound and drug was calculated as its ovicidal activity following the formula below: Ovicidal activity%=100×%eggs hatched in negative control-%egg hatched after drug incubation/%egg hatched in control.

[3] = tested on: Fasciola hepatica eggs (ABZ-resistant isolate); experiment: Egg hatch test (EHT), ABZ-resistant isolate; conditions: for % Ovicidal activity resistant isolate: 5 µM, mean ± SEM; for Ovicidal activity on the resistant isolate: 10 µM as printed
Excerpt: F. hepatica eggs were recovered after washing the gallbladder of three naturally infected sheep belonging to a flock suspected to be resistant to ABZ. From these eggs, metacercariae were produced at the Centro de Investigaciones de Mabegondo (AGACAL, Xunta de Galicia, Spain) following a previous protocol. These metacercariae were used to infect eight sheep with a dose of 200 metacercariae. The infection was confirmed individually 3 months after the infection by coprological analysis using a sedimentation technique. At that point, sheep were randomly located in two groups of four animals: one treated with a therapeutic dose of ABZ (7.5 mg/kg) and the other one only with water, as control group. To assess the efficacy of ABZ in this isolate, all sheep were humanely euthanized by an intravenous administration of a lethal dose of sodium pentobarbital (Dolethal®, Vetoquinol, Spain) 2 weeks later for fluke recovery and counting. Afterwards, the in vivo efficacy of ABZ was calculated as the percentage of adult worm reduction compared with the untreated control. Additionally, the number of eggs per gram of feces (EPG) was estimated on the treatment day (mentioned as day 0) and 14 days later to determine drug efficacy by means of the fecal egg count reduction test (FECRT).
During the necropsy, gallbladders from sheep belonging to the untreated group were taken to collect the eggs and carry out the in vitro EHT, while flukes collected from livers were used to conduct the adult viability test (AVT).
Those BZDs with an activity higher than 80% at a concentration of 10 µM were also screened on eggs and adults from the ABZ resistant isolate.
as §1, §2

| SMILES | % Ovicidal activity ([2]; 50 µM) | also measured |
| --- | --- | --- |
| CCC[S+]([O-])c1ccc2[nH]c(NC(=O)OC)nc2c1 (centres unmarked) [ABZSO, albendazole sulfoxide, reference compound] |  | Motility inhibition of adults after 72 h of incubation (in words; significance vs 24 h) ([1]; 10 µM, ABZ-resistant isolate): nor those with ABZSO or BZD46, exhibited any significant motility inhibition; also recorded: no evidence of inhibition; also recorded: did not produce any motility alteration; inhibition at 10 µM ([1]; read-out: % Adult motility inhibition 48 h): 25%; inhibition at 10 µM ([1]; read-out: % Adult motility inhibition 72 h): 25%; killing at 5 µM [2]: > 98%; % Ovicidal activity resistant isolate [3]: 26% and 26.12 ± 11.87%; Ovicidal activity on the resistant isolate [3]: 26% |
| COc1ccc(-c2nc3ccccc3[nH]2)cc1 [BZD01] | 20.07 ± 9.32% |  |
| Clc1ccc(-c2nc3ccccc3[nH]2)cc1 [BZD02] | 09.55 ± 5.68% |  |
| Brc1ccc(-c2nc3ccccc3[nH]2)cc1 [BZD03] | 01.93 ± 1.11% |  |
| Cc1ccc2[nH]c(-c3ccc(Cl)cc3)nc2c1 [BZD05] | 35.59 ± 9.00% | % Ovicidal activity ([2]; 10 µM): around 50% |
| Cc1ccc(C)c(-c2nc3cc(C)ccc3[nH]2)c1 [BZD06] | 02.26 ± 1.30% and 04.63 ± 2.27% |  |
| COc1ccc(-c2nc3cc(C)ccc3[nH]2)cc1[N+](=O)[O-] [BZD07] | 07.13 ± 3.45% |  |
| O=[N+]([O-])c1ccc(-c2nc3cc(Cl)ccc3[nH]2)cc1 [BZD10] | 23.55 ± 8.06% |  |
| Cc1ccc(C)c(-c2nc3cc(Cl)ccc3[nH]2)c1 [BZD11] | 03.28 ± 1.45% |  |
| COc1ccc(-c2nc3cc(Cl)ccc3[nH]2)cc1[N+](=O)[O-] [BZD12] | 00.55 ± 9.45% |  |
| COc1ccc(-c2nc3cc(Cl)ccc3[nH]2)cc1N [BZD13] | 04.40 ± 1.38% |  |
| COc1ccc(-c2nc3cc([N+](=O)[O-])ccc3[nH]2)cc1 [BZD14] | 15.55 ± 7.35% |  |
| Cc1ccc(C)c(-c2nc3cc([N+](=O)[O-])ccc3[nH]2)c1 [BZD16] | 00.33 ± 0.33% |  |
| COc1ccc(-c2nc3cc([N+](=O)[O-])ccc3[nH]2)cc1[N+](=O)[O-] [BZD17] | 00.00 ± 0.00% |  |
| COc1ccc(-c2nc3cc(N)ccc3[nH]2)cc1 [BZD18] | 02.82 ± 1.42% |  |
| COc1ccc(-c2nc3cc(NC(=O)c4ccccn4)ccc3[nH]2)cc1 [BZD19] | 13.61 ± 3.64% |  |
| COc1ccc(-c2nc3cc(OC)ccc3[nH]2)cc1 [BZD20] |  | % Ovicidal activity ([2]; 10 µM): 24.59 ± 05.71% |
| COc1ccc2[nH]c(-c3ccc(Cl)cc3)nc2c1 [BZD21] | 06.88 ± 6.88% |  |
| COc1ccc2nc(-c3ccc(Br)cc3)[nH]c2c1 [BZD22] | 67.47 ± 5.64% |  |
| COc1ccc(-c2nc3cc(C)c(C)cc3[nH]2)cc1 [BZD23] | 59.08 ± 3.79% |  |
| COc1ccc(-c2nc3cc(Cl)c(Cl)cc3[nH]2)cc1 [BZD24] | 16.09 ± 6.50% |  |
| Cc1ccc(S(=O)(=O)Nc2nc3cc(C)ccc3[nH]2)cc1 [BZD25] | 3.94 ± 1.37% |  |
| Cc1ccc2[nH]c(NS(=O)(=O)c3ccc4ccccc4c3)nc2c1 [BZD26] | 2.23 ± 0.99% |  |
| COc1ccc(CNc2nc3cc(C)ccc3[nH]2)c(OC)c1OC [BZD28] | 01.02 ± 0.62% |  |

| SMILES | % Ovicidal activity ([2]; 50 µM) | also measured |
| --- | --- | --- |
| Cc1ccc2[nH]c(NCc3ccc4ccccc4c3)nc2c1 [BZD29] | 04.65 ± 1.98% |  |
| COc1ccc(CNc2nc3cc(Cl)ccc3[nH]2)cc1 [BZD33] | 05.52 ± 2.49% |  |
| COc1cc(CNc2nc3cc(Cl)ccc3[nH]2)cc(OC)c1OC [BZD34] | 00.39 ± 0.38% |  |
| Clc1ccc2[nH]c(NCc3ccco3)nc2c1 [BZD35] | 37.65 ± 13.55% |  |
| COc1ccc2[nH]c(NCc3ccccc3)nc2c1 [BZD36] | 70.94 ± 2.32% |  |
| COc1ccc(CNc2nc3cc(OC)ccc3[nH]2)cc1 [BZD37] | 08.66 ± 1.86% |  |
| COc1ccc2[nH]c(NCc3cccs3)nc2c1 [BZD40] | 17.73 ± 5.12% |  |
| COc1ccc(CNc2nc3cc(C)c(C)cc3[nH]2)cc1 [BZD41] | 05.76 ± 3.12% |  |
| COc1cc(CNc2nc3cc(C)c(C)cc3[nH]2)cc(OC)c1OC [BZD42] | 10.73 ± 3.26% |  |
| Clc1cc2nc(NCc3ccccc3)[nH]c2cc1Cl [BZD43] | 55.36 ± 3.12% |  |
| COc1cc(CNc2nc3cc(Cl)c(Cl)cc3[nH]2)cc(OC)c1OC [BZD45] | 00.91 ± 0.61% |  |
| COc1ccc(C(=O)Nc2nc3cc(C)ccc3[nH]2)cc1 [BZD48] | 09.72 ± 2.50% |  |
| Cc1ccc2[nH]c(NC(=O)c3cc([N+](=O)[O-])ccc3Cl)nc2c1 [BZD50] | 07.62 ± 2.71% |  |
| COc1cc(OC)cc(C(=O)Nc2nc3cc(C)ccc3[nH]2)c1 [BZD51] | 05.05 ± 2.51% |  |
| COc1cc(C(=O)Nc2nc3cc(C)ccc3[nH]2)cc(OC)c1OC [BZD52] | 02.50 ± 1.26% |  |
| Cc1ccc2[nH]c(NC(=O)Cc3ccc4ccccc4c3)nc2c1 [BZD53] | 01.07 ± 0.62% |  |
| Cc1ccc2[nH]c(NC(=O)Cc3cccs3)nc2c1 [BZD54] | 07.20 ± 3.47% |  |
| COc1ccc(C(=O)Nc2nc3cc(Cl)ccc3[nH]2)cc1 [BZD57] | 60.39 ± 10.70% |  |
| COc1ccc(C(=O)Nc2nc3cc(OC)ccc3[nH]2)cc1 [BZD60] | 01.08 ± 0.79% |  |
| Cc1cc2nc(NC(=O)c3cccc(Cl)c3)[nH]c2cc1C [BZD65] | 01.61 ± 0.82% |  |
| COc1ccc(C(=O)Nc2nc3cc(C)c(C)cc3[nH]2)cc1 [BZD66] | 00.26 ± 0.25% |  |
| O=C(Nc1nc2cc(Cl)c(Cl)cc2[nH]1)c1ccccc1 [BZD67] | 03.33 ± 2.51% |  |
| COc1ccc(C(=O)Nc2nc3cc(Cl)c(Cl)cc3[nH]2)cc1 [BZD70] | 02.75 ± 1.16% |  |
| COC(=O)Nc1nc2ccc([S+]([O-])c3ccccc3)cc2[nH]1 (centres unmarked) [OXF, oxfendazole, reference compound] |  | killing at 5 µM [2]: > 98%; % Ovicidal activity resistant isolate [3]: 3% and 03.41 ± 02.08%; Ovicidal activity on the resistant isolate [3]: 3.5% |
